# Data from ChEMBL document CHEMBL5053532, “Bradykinin-Potentiating Peptide-Paclitaxel Conjugate Directed at Ectopically Expressed Angiotensin-Converting Enzyme in Triple-Negative Breast Cancer” (J Med Chem, 2021).
# The source made the active and inactive calls. The calls are words filed in the database; no cut-off is given here. Where a SMILES comes first, the peptide text is derived from it. The star is where a group is joined. Paclitaxel(2'-O-succinyl) = CC(=O)O[C@H]1C(=O)[C@@]2(C)[C@H]([C@H](OC(=O)c3ccccc3)[C@]3(O)C[C@H](OC(=O)[C@H](OC(=O)CCC(=O)*)[C@@H](NC(=O)c4ccccc4)c4ccccc4)C(C)=C1C3(C)C)[C@]1(OC(C)=O)CO[C@@H]1C[C@@H]2O
# What was measured:
# [1] = target: Angiotensin-converting enzyme (Homo sapiens, UniProt P12821); experiment: Binding affinity to human recombinant ACE protein assessed as dissociation constant incubated for 15 mins by […] binding analysis
# Sequence of Angiotensin-converting enzyme (P12821 whole entry): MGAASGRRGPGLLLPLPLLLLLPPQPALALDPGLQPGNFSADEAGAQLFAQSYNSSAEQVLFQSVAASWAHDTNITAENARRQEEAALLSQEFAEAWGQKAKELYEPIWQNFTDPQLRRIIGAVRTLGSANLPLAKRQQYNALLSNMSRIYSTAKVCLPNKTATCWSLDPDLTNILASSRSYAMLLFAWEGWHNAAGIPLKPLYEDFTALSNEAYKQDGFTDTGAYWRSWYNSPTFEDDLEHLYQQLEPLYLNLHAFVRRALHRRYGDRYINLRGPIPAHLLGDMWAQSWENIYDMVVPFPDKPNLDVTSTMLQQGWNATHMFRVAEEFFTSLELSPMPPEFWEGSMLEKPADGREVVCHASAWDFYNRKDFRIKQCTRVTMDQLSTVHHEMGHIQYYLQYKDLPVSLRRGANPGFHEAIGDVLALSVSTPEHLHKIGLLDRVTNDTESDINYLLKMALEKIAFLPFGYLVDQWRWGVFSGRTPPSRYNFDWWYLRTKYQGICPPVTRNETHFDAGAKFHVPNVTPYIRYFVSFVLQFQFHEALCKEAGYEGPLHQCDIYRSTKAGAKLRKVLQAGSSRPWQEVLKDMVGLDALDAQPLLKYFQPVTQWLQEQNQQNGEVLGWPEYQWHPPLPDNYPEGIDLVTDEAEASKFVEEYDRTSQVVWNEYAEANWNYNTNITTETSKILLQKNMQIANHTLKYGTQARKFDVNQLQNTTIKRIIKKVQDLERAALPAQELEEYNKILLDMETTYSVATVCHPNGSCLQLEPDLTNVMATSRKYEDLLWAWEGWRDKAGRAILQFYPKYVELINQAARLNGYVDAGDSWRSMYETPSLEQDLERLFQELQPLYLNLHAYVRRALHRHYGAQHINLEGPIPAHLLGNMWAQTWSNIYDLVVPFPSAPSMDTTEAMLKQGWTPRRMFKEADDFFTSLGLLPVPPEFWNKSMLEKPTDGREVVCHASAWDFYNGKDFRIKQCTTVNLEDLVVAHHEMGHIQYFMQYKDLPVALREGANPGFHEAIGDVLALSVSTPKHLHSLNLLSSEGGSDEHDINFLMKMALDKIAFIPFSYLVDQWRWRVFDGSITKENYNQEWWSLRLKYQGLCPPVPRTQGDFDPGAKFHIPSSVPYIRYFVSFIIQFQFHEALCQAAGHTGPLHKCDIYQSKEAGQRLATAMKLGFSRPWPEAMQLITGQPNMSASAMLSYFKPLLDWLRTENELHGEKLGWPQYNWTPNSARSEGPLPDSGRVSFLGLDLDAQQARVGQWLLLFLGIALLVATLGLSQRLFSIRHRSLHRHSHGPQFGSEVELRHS
# [2] = Stability of the compound in rat plasma assessed as drug residual at 10 uM measured after 48 hrs by LC/MS analysis; format: ADME, cell-free; details: read-out: Stability
# [3] = Stability of the compound in rat plasma assessed as half life at 10 uM measured after 72 hrs by LC/MS analysis; format: ADME, cell-free
# [4] = Stability of the compound in PBS buffer assessed as half life at 10 uM measured after 72 hrs by LC/MS analysis; format: physicochemical
# HEK-293T [5] = experiment: Antiproliferative activity against ACE-negative human HEK293T cells incubated for 48 hrs by MTT assay; format: functional, cell-based
# MDA-MB-231 [6] = experiment: Antiproliferative activity against ACE-positive human MDA-MB-231 cells incubated for 48 hrs by MTT assay; format: functional, cell-based; details: MDA-MB-231, 48 h
# MDA-MB-468 [7] = experiment: Antiproliferative activity against ACE-positive human MDA-MB-468 cells incubated for 48 hrs by MTT assay; format: functional, cell-based; details: MDA-MB-468, 48 h
# HEK-293T [8] = experiment: Antiproliferative activity against human HEK293T cells expressing ACE containing plasmid incubated for 48 hrs by MTT assay; format: functional, cell-based
# [9] = Drug uptake in human MDA-MB-468 cells assessed as increase in PTX uptake rate at 10 to 20 uM measured after 2 hrs; format: ADME, cell-based; details: mda-mb-468, 2 h, dose 10-20 µM
# MDA-MB-231 [10] = experiment: Induction of apoptosis in ACE-positive human MDA-MB-231 cells assessed as increase in apoptotic cells at 10 nM measured after 48 hrs by Annexin V-FITC/PI staining based fluorescence microscopy; format: functional, cell-based
# MDA-MB-468 [11] = experiment: Induction of apoptosis in ACE-positive human MDA-MB-468 cells assessed as increase in apoptotic cells at 10 nM measured after 48 hrs by Annexin V-FITC/PI staining based fluorescence microscopy; format: functional, cell-based
# [12] = Acute toxicity in BALB/c mouse assessed as rate of weight loss at 60 mg/kg, ip measured for 15 days; format: organism-based; details: in vivo, 360 h, time 15 day
# [13] = Acute toxicity in BALB/c mouse assessed as rate of weight loss at 80 mg/kg, ip measured for 15 days; format: organism-based; details: in vivo, 360 h, time 15 day
# [14] = Acute toxicity in BALB/c mouse assessed as rate of weight loss at 100 mg/kg, ip measured for 15 days; format: organism-based; details: in vivo, 360 h, time 15 day
# [15] = Acute toxicity in BALB/c mouse assessed as survival at 60 mg/kg, ip measured for 15 days; format: organism-based; details: in vivo, 360 h, time 15 day
# [16] = Acute toxicity in BALB/c mouse assessed as survival at 80 mg/kg, ip measured for 15 days; format: organism-based; details: in vivo, 360 h, time 15 day
# [17] = Acute toxicity in BALB/c mouse assessed as survival at 100 mg/kg, ip measured for 15 days; format: organism-based; details: in vivo, 360 h, time 15 day
# [18] = Drug uptake in BALB/c mouse xenografted with human […] cells assessed as PTX level in tumor at 17.6 micromol/kg, ip measured after 1 hr; format: ADME, organism-based, Neoplasm; details: in vivo, dose 17.6 µmol/kg
# [19] = Drug uptake in BALB/c mouse xenografted with human […] cells assessed as PTX level in tumor at 17.6 micromol/kg, ip measured after 4 hrs; format: ADME, organism-based, Neoplasm; details: in vivo, dose 17.6 µmol/kg
# [20] = Drug uptake in BALB/c mouse xenografted with human […] cells assessed as PTX level in liver at 17.6 micromol/kg, ip measured after 15 mins to 24 hrs; format: ADME, organism-based; details: in vivo, 0.25 h, dose 17.6 µmol/kg
# [21] = Drug uptake in BALB/c mouse xenografted with human […] cells assessed as PTX level in kidney at 17.6 micromol/kg, ip measured after 15 mins to 24 hrs; format: ADME, organism-based; details: in vivo, 0.25 h, dose 17.6 µmol/kg
# [22] = Drug uptake in BALB/c mouse xenografted with human […] cells assessed as PTX level in lung at 17.6 micromol/kg, ip measured after 15 mins to 24 hrs; format: ADME, organism-based; details: in vivo, 0.25 h, dose 17.6 µmol/kg
# MDA-MB-468 [23] = experiment: Antitumor activity in human […] cells xenografted in Balb/c mouse assessed as reduction in tumor growth at 2.4 micromol/kg, ip measured after 4 days; format: functional, organism-based; details: dose 2.4 µmol/kg, time 4.0 day
# MDA-MB-468 [24] = experiment: Antitumor activity in human […] cells xenografted in Balb/c mouse assessed as reduction in tumor growth at 2.4 micromol/kg, ip measured after 28 days relative to control; format: functional; parameters: scale not given: the % may be the effect or the level left; details: dose 2.4 µmol/kg, time 28 day
# MDA-MB-468 [25] = experiment: Antitumor activity in human […] cells xenografted in Balb/c mouse assessed as reduction in tumor growth at 9.6 micromol/kg, ip measured after 28 days relative to control; format: functional; parameters: scale not given: the % may be the effect or the level left; details: dose 9.6 µmol/kg, time 28 day
# MDA-MB-468 [26] = experiment: Antitumor activity in human […] cells xenografted in Balb/c mouse assessed as tumor weight at 2.4 micromol/kg, ip measured after 28 days (reference value: 0.43 g); format: functional; details: dose 2.4 µmol/kg, time 28 day
# MDA-MB-468 [27] = experiment: Antitumor activity in human […] cells xenografted in Balb/c mouse assessed as tumor weight at 9.6 micromol/kg, ip measured after 28 days (reference value: 0.43 g); format: functional; details: dose 9.6 µmol/kg, time 28 day
# Mus musculus [28] = experiment: Toxicity in BALB/c mouse xenografted with human […] cells assessed as decrease in body weight at 2.4 micromol/kg, ip measured after 28 days relative to control; format: organism-based; parameters: scale not given: the % may be the effect or the level left; details: 672 h, at 2.4 µmol/kg, time 28 day
# Mus musculus [29] = experiment: Toxicity in BALB/c mouse xenografted with human […] cells assessed as decrease in body weight at 9.6 micromol/kg, ip measured after 28 days relative to control; format: organism-based; parameters: scale not given: the % may be the effect or the level left; details: 672 h, at 9.6 µmol/kg, time 28 day
# Mus musculus [30] = experiment: Toxicity in BALB/c mouse xenografted with human […] cells assessed as reduction in WBC count at 2.4 micromol/kg, ip measured after 28 days relative to control; format: organism-based; parameters: scale not given: the % may be the effect or the level left; details: 672 h, at 2.4 µmol/kg, time 28 day
# Mus musculus [31] = experiment: Toxicity in BALB/c mouse xenografted with human […] cells assessed as reduction in WBC count at 9.6 micromol/kg, ip measured after 28 days relative to control; format: organism-based; parameters: scale not given: the % may be the effect or the level left; details: 672 h, at 9.6 µmol/kg, time 28 day
# HEK-293T [32] = experiment: Potency index, ratio of PTX IC50 to test compound IC50 antiproliferative activity against ACE-negative human HEK293T cells incubated for 48 hrs by MTT assay; format: functional
# MDA-MB-231 [33] = experiment: Potency index, ratio of PTX IC50 to test compound IC50 antiproliferative activity against ACE-positive human MDA-MB-231 cells incubated for 48 hrs by MTT assay; format: functional
# MDA-MB-468 [34] = experiment: Potency index, ratio of PTX IC50 to test compound IC50 antiproliferative activity against ACE-positive human MDA-MB-468 cells incubated for 48 hrs by MTT assay; format: functional
# [35] = Stability of the compound in PBS buffer assessed as drug residual at 10 uM measured after 72 hrs by LC/MS analysis; format: physicochemical; details: read-out: Stability
# [36] = Stability of the compound in rat plasma assessed as drug residual at 10 uM measured after 72 hrs by LC/MS analysis; format: ADME, cell-free; details: read-out: Stability
# MDA-MB-231 [37] = experiment: Induction of apoptosis in ACE-positive human MDA-MB-231 cells assessed as increase in early apoptotic cells by measuring fragmented nuclei at 10 nM after 48 hrs by DAPI staining based fluorescence microscopy; format: functional, cell-based
# [38] = Acute toxicity in BALB/c mouse assessed as rate of weight loss at 15 mg/kg, ip measured for 15 days; format: organism-based; details: in vivo, 360 h, time 15 day
# [39] = Acute toxicity in BALB/c mouse assessed as rate of weight loss at 20 mg/kg, ip measured for 15 days; format: organism-based; details: in vivo, 360 h, time 15 day
# [40] = Acute toxicity in BALB/c mouse assessed as survival at 15 mg/kg, ip measured for 15 days; format: organism-based; details: in vivo, 360 h, time 15 day
# [41] = Acute toxicity in BALB/c mouse assessed as survival at 20 mg/kg, ip measured for 15 days; format: organism-based; details: in vivo, 360 h, time 15 day
# [42] = Drug uptake in BALB/c mouse xenografted with human […] cells measured in tumor at 17.6 micromol/kg, ip measured after 1 hr; format: ADME, organism-based, Neoplasm; details: dose 17.6 µmol/kg, read-out: Drug uptake
# [43] = Drug uptake in BALB/c mouse xenografted with human […] cells measured in tumor at 17.6 micromol/kg, ip measured after 4 hrs; format: ADME, organism-based, Neoplasm; details: dose 17.6 µmol/kg, read-out: Drug uptake
# Mus musculus [44] = experiment: Toxicity in BALB/c mouse xenografted with human […] cells assessed as body weight loss at 2.4 micromol/kg, ip measured upto 24 days; format: organism-based; details: 576 h, dose 2.4 µmol/kg, time < 24 day
structure (smiles),measurement,setting,value
CC[C@H](C)[C@H](NC(=O)[C@H](CCC(N)=O)NC(=O)[C@@H]1CCCN1C(=O)[C@H](CCCNC(=N)N)NC(=O)[C@@H]1CCCN1C(=O)[C@H](Cc1c[nH]c2ccccc12)NC(=O)[C@H](CCC(=O)O)NC(=O)CCC(=O)O[C@@H](C(=O)O[C@H]1C[C@@]2(O)[C@@H](OC(=O)c3ccccc3)[C@@H]3[C@]4(OC(C)=O)CO[C@@H]4C[C@H](O)[C@@]3(C)C(=O)[C@H](OC(C)=O)C(=C1C)C2(C)C)[C@@H](NC(=O)c1ccccc1)c1ccccc1)C(=O)N1CCC[C@H]1C(=O)N1CCC[C@H]1C(N)=O ({Paclitaxel(2'-O-succinyl)}-EWPRPQIPP-NH2),Kd,[1]; read-out: Kd,380 nM
same,"remaining at 48 h, 10 µM",[2],0.169%
same,half-life at 10 µM,[3],5.82 h
same,half-life at 10 µM,[4],57.8 h
same,IC50,HEK-293T [5],616 nM
same,IC50,MDA-MB-231 [6],9.5 nM
same,IC50,MDA-MB-468 [7],12.3 nM
same,Activity,HEK-293T [8],Active
same,Drug uptake,[9],Active
same,Activity,MDA-MB-231 [10],Active
same,Activity,MDA-MB-468 [11],Active
same,Activity,[12],1.9%
same,Activity,[13],4.5%
same,Activity,[14],7.2%
same,Activity,[15],Non-Toxic
same,Activity,[16],Non-Toxic
same,Activity,[17],Non-Toxic
same,Drug uptake,[18],18067 ng/g
same,Drug uptake,[19],10458 ng/g
same,Drug uptake,[20],Active
same,Drug uptake,[21],Active
same,Drug uptake,[22],Active
same,Activity,MDA-MB-468 [23],inactive
same,Activity,MDA-MB-468 [24],54%
same,Activity,MDA-MB-468 [25],62%
same,Activity,MDA-MB-468 [26],0.2 g
same,Activity,MDA-MB-468 [27],0.16 g
same,Activity,Mus musculus [28],2.8%
same,Activity,Mus musculus [29],6.4%
same,Activity,Mus musculus [30],17%
same,Activity,Mus musculus [31],22%
same,Ratio IC50,HEK-293T [32],91.9
same,Ratio IC50,MDA-MB-231 [33],3.1
same,Ratio IC50,MDA-MB-468 [34],4.1
CC(=O)O[C@H]1C(=O)[C@@]2(C)[C@H]([C@H](OC(=O)c3ccccc3)[C@]3(O)C[C@H](OC(=O)[C@H](O)[C@@H](NC(=O)c4ccccc4)c4ccccc4)C(C)=C1C3(C)C)[C@]1(OC(C)=O)CO[C@@H]1C[C@@H]2O [PACLITAXEL],Kd,[1],Not Active
same,"remaining at 72 h, 10 µM",[35],70.3%
same,"remaining at 72 h, 10 µM",[36],47.6%
same,IC50,HEK-293T [5],6.7 nM
same,IC50,MDA-MB-231 [6],3.1 nM
same,IC50,MDA-MB-468 [7],3 nM
same,Activity,MDA-MB-231 [37],Active
same,Activity,MDA-MB-231 [10],Active
same,Activity,MDA-MB-468 [11],Active
same,Activity,[38],4%
same,Activity,[39],8.7%
same,Activity,[40],Non-Toxic
same,Activity,[41],Non-Toxic
same,concentration at 1 h,[42],6470 ng/g
same,concentration at 4 h,[43],2250 ng/g
same,Activity,MDA-MB-468 [23],inactive
same,Activity,MDA-MB-468 [24],15%
same,Activity,MDA-MB-468 [25],30%
same,Activity,MDA-MB-468 [26],0.26 g
same,Activity,Mus musculus [44],Non-Toxic
same,Activity,Mus musculus [30],6.2%
